Our source for the IC50 values is patent US12522587B2, “Cancer treatments targeting cancer stem cells” (Remedy Plan, Inc., priority 2018, dated 2026).

Each structure is given as a SMILES string. Where a name gives a salt, the structure may show the parent alone.

The first assay relates to AGS cells. The assay can be described thus: Cell viability in AGS cells (CellTiter Glo2, 8-point dose response, 4 days). Type of assay: cell-based, human.
Conditions: not given
The method, then: AGS cells were treated with DMSO (no drug control) or each compound in Table 5 in an 8-point dose response for 4 days. Cell viability was measured using CellTiter Glo2. The IC50 of each compound was determined using CDD Vault.
(Cellular ATP, detected with luciferase, serves as a proxy for viable cell number.)
The term IC50 denotes the concentration that inhibits the measured activity by half. A high value points to lower potency. `CCC(=O)N1CCc2cc(-c3nc(C(=O)NCc4cccnc4)c[nH]3)ccc21` [Compound I-208, 2-(1-propionylindolin-5-yl)-N-(pyridin-3-ylmethyl)-1H-imidazole-4-carboxamide] yielded an IC50 of 15.1 µM.
Compound `CC(=O)N1CCCc2cc(-c3ccc(C(=O)NCc4cccnc4)cc3)ccc21` [Compound I-46, 4-(1-acetyl-1,2,3,4-tetrahydroquinolin-6-yl)-N-(pyridin-3-ylmethyl)benzamide] displayed an IC50 above 18.3 µM.
Regarding `CCC(=O)N1CCc2cc(-c3ccc(C(=O)NCc4ccc(C)nc4C)cc3)ccc21` [Compound I-60, N-((2,6-dimethylpyridin-3-yl)methyl)-4-(1-propionylindolin-5-yl)benzamide], the half-maximal inhibitory concentration (IC50) was 0.384 µM.
The compound `CCC(=O)N1CCc2cc(-c3ccc(C(=O)NCc4cccnc4)cc3C)ccc21` [Compound I-91, 3-methyl-4-(1-propionylindolin-5-yl)-N-(pyridin-3-ylmethyl)benzamide] showed an IC50 of 2.59 µM.
`CCC(=O)N1CCc2cc(-c3ccc(C(=O)NCc4ccnnc4)cc3)ccc21` [Compound I-52, 4-(1-propionylindolin-5-yl)-N-(pyridazin-4-ylmethyl)benzamide] registered a half-maximal inhibitory concentration (IC50) above 8.01 µM.

The same assay, now with this note: Homo sapiens, 96 h.
For `CCC(=O)N1CCc2cc(-c3ccc(C(=O)NCC4=CC[NH2+]CC4)cc3)ccc21` [Mono- formate of I-69, Monoformate 4-(1-propionylindolin-5-yl)-N-((1,2,3,6-tetrahydropyridin-4-yl)methyl)benzamide], the IC50 is above 30 µM.
As for `CCC(=O)N1CCc2cc(-c3ccc(C(=O)N(C)Cc4cccnc4)cc3)ccc21` [Compound I-62, N-methyl-4-(1-propionylindolin-5-yl)-N-(pyridin-3-ylmethyl)benzamide], the 50% inhibitory concentration (IC50) stood at 29.3 µM.

The assay is the same for the next values; noted with them: Homo sapiens, AGS, 96 h.
`CCC(=O)N1CCc2cc(-c3ccc(C(=O)NCc4cccnc4)c(O)c3)ccc21` [Compound I-210]: the IC50 amounted to 3.02 µM.
Same read-out and setting: as for `CCC(=O)N1CCc2cc(-c3ccc(C(=O)NCc4ccco4)cc3)ccc21` [Compound I-181], the figure is above 30 µM.
`CCC(=O)N(C)c1ccc(-c2ccc(C(=O)NCc3cncc(F)c3)cc2)cc1` [Compound I-234] returned a 50% inhibitory concentration (IC50) above 30 µM.
In turn, `CCC(=O)N1CCc2cc(-c3ccc(C(=O)NCc4ccc(F)cc4)cc3)ccc21` [Compound I-179] came in with an IC50 above 30 µM.
On to `CCC(=O)N1CCc2cc(-c3ccc(C(=O)NCc4cccc(OC)c4)cc3)ccc21` [Compound I-171], for which the IC50 is above 30 µM.
As for `CCC(=O)N1CCc2cc(-c3ccc(C(=O)NCc4cccnc4)cc3)c(F)cc21` [Compound I-211], half-maximal inhibition (IC50) was put at 1.16 µM.
In the case of `CCC(=O)N(C)c1ccc(-c2ccc(C(=O)NCc3cncs3)cc2)cc1` [Compound I-235], the IC50 was above 30 µM.
For the compound `CCC(=O)N1CCc2cc(-c3nc(C(=O)NCc4cccnc4)c[nH]3)ccc21` [Compound I-208, 2-(1-propionylindolin-5-yl)-N-(pyridin-3-ylmethyl)-1H-imidazole-4-carboxamide], the IC50 is above 30 µM.
On the same count and under the same terms, then `CCC(=O)N1CCc2nc(-c3ccc(C(=O)NCc4cccnc4)cc3)ccc21` [Compound I-71, 4-(1-propionyl-2,3-dihydro-1H-pyrrolo[3,2-b]pyridin-5-yl)-N-(pyridin-3-ylmethyl)benzamide], with 4.35 µM; and `CCC(=O)N1CCc2cc(-c3ccc(C(=O)NC(C)c4cccnc4)cc3)ccc21` (centres unmarked) [Compound I-57, 4-(1-propionylindolin-5-yl)-N-(1-(pyridin-3-yl)ethyl)benzamide], with above 28.2 µM; and `CCC(=O)N1CCc2cc(-c3ccc(C(=O)NCC4CNC4)cc3)ccc21` [Compound I-200, N-(azetidin-3-ylmethyl)-4-(1-propionylindolin-5-yl)benzamide], with above 30 µM.
With `CCC(=O)N1CCc2c1ccc(-c1ccc(C(=O)NCc3cccnc3)cc1)c2F` [Compound I-213], the IC50 was 3.48 µM.
On to `CCC(=O)N(C)c1ccc(-c2ccc(C(=O)NCc3cncc(C)c3)cc2)cc1` [Compound I-237], for which half-maximal inhibition (IC50) required 6.69 µM.
`CCC(=O)N1CCc2cc(-c3ccc(C(=O)NCC4CCNCC4)cc3)ccc21` [Compound I-70, N-(piperidin-4-ylmethyl)-4-(1-propionylindolin-5-yl)benzamide] came in with a half-inhibitory concentration (IC50) above 30 µM.
Turning to `CCC(=O)N1CCc2cc(-c3ccc(C(=O)NCC4CCCO4)cc3)ccc21` (centres unmarked) [Compound I-178], the IC50 is above 30 µM.
For the compound `O=C(NCc1cccnc1)c1ccc(-c2ccc3c(c2)CCN3C(=O)C2CC2)cc1` [Compound I-220], it took 2.94 µM to reach half-maximal inhibition (IC50).
As to `CCC(=O)N(C)c1ccc(-c2ccc(C(=O)NCc3cccnc3)nc2)cc1C` [Compound I-227, 5-(3-methyl-4-(N-methylpropionamido)phenyl)-N-(pyridin-3-ylmethyl)picolinamide], it took 5.22 µM to reach half-maximal inhibition (IC50).
In turn, `CCC(=O)N1CCc2cc(-c3ccc(C(=O)NCC4CN(C(=O)OC(C)(C)C)C4)cc3)ccc21` [Compound I-196] yielded a half-inhibitory concentration (IC50) above 30 µM.
Same read-out and setting: then `CCC(=O)N1CCc2cc(-c3ccc(C(=O)NCc4ccncn4)cc3)ccc21` [Compound I-204, 4-(1-propionylindolin-5-yl)-N-(pyrimidin-4-ylmethyl)benzamide], with above 30 µM.
Regarding `CN1CCc2cc(-c3ccc(C(=O)NCc4cccnc4)cc3)ccc21` [Compound I-75, 4-(1-methylindolin-5-yl)-N-(pyridin-3-ylmethyl)benzamide], the IC50 is above 20.6 µM.
`CC(=O)N1CCCc2cc(-c3ccc(C(=O)NCc4cccnc4)cc3)ccc21` [Compound I-46, 4-(1-acetyl-1,2,3,4-tetrahydroquinolin-6-yl)-N-(pyridin-3-ylmethyl)benzamide] registered an IC50 above 17.5 µM.
Turning to `CCC(=O)N1CCc2cc(-c3ccc(C(=O)NCc4ccc(C)nc4C)cc3)ccc21` [Compound I-60, N-((2,6-dimethylpyridin-3-yl)methyl)-4-(1-propionylindolin-5-yl)benzamide], inhibition was half-maximal at 0.344 µM (IC50).
With `CCC(=O)N1CCc2cc(-c3ccc(C(=O)NC(C)(C)c4cccnc4)cc3)ccc21` [Compound I-58, 4-(1-propionylindolin-5-yl)-N-(2-(pyridin-3-yl)propan-2-yl)benzamide], the IC50 was above 30 µM.
Take `CCC(=O)N1CCc2cc(-c3ccc(C(=O)NCc4cccnc4)cc3C)ccc21` [Compound I-91, 3-methyl-4-(1-propionylindolin-5-yl)-N-(pyridin-3-ylmethyl)benzamide]: the IC50 came out at 2.03 µM.
As for `CCC(=O)n1ccc2cc(-c3ccc(C(=O)NCc4cccnc4)cc3)ccc21` [Compound I-90, 4-(1-propionyl-1H-indol-5-yl)-N-(pyridin-3-ylmethyl)benzamide], the IC50 is above 13.3 µM.
As to `CCC(=O)N1CCc2cc(-c3ccc(C(=O)Nc4cccnc4)cc3)ccc21` [Compound I-74], half-maximal inhibition (IC50) was put at 6.61 µM.
With `CCC(=O)N(C)c1ccc(-c2ccc(C(=O)NCc3ccc(C)nc3C)cc2)cc1` [Compound I-221], the IC50 worked out at 0.607 µM.
Take `CCC(=O)N1CCc2cc(-c3ccc(C(=O)NCc4ccncc4)cc3)ccc21` [Compound I-49, 4-(1-propionylindolin-5-yl)-N-(pyridin-4-ylmethyl)benzamide]: the 50% inhibitory concentration (IC50) is above 30 µM.
On to `CN(C(=O)c1cocn1)c1ccc(-c2ccc(C(=O)NCc3cccnc3)cc2)cc1` [Compound I-245], for which inhibition was half-maximal at 5.16 µM (IC50).
The compound `CCC(=O)N1CCc2cc(-c3ccc(C(=O)NCc4cccnc4)cc3)c(Cl)cc21` [Compound I-212] showed an IC50 of 1.35 µM.
The compound `CCC(=O)N1CCc2cc(-c3ccc(NC(=O)Cc4cccnc4)cc3)ccc21` [Compound I-95] registered a half-maximal inhibitory concentration (IC50) above 30 µM.
Compound `CCC(=O)N1CCc2cc(-c3ccc(C(=O)NCC4CCOCC4)cc3)ccc21` [Compound I-191, 4-(1-propionylindolin-5-yl)-N-((tetrahydro-2H-pyran-4-yl)methyl)benzamide] showed an IC50 above 30 µM.
Turning to `CCC(=O)N1CCc2cc(-c3cccc(C(=O)NCc4cccnc4)c3)ccc21` [Compound I-50, 3-(1-propionylindolin-5-yl)-N-(pyridin-3-ylmethyl)benzamide], the IC50 is above 30 µM.
Consider `CCC(=O)N1CCc2cc(-c3ccc(C(=O)NCc4ccc(OC)cc4)cc3)ccc21` [Compound I-156], for which the IC50 is above 30 µM.
`CN(C(=O)CC#N)c1ccc(-c2ccc(C(=O)NCc3cccnc3)cc2)cc1` [Compound I-249] displayed an IC50 above 18.4 µM.
`CCC(=O)N1CCc2cc(-c3ccc(C(=O)NCc4cccc(F)c4)cc3)ccc21` [Compound I-174] registered a half-inhibitory concentration (IC50) above 30 µM.
Regarding `CC(C)C(=O)N(C)c1ccc(-c2ccc(C(=O)NCc3cccnc3)cc2)cc1` [Compound I-250], the IC50 was determined as 1.87 µM.
Consider `CCC(=O)N(C)c1ccc(-c2ccc(C(=O)NCc3cnccc3C)cc2)cc1` [Compound I-238], for which the IC50 was above 30 µM.
On the same count and under the same terms, then `CCC(=O)N1CCc2cc(-c3ccc(C(=O)NCc4cccnc4C)cc3)ccc21` [Compound I-61, N-((2-methylpyridin-3-yl)methyl)-4-(1-propionylindolin-5-yl)benzamide], with above 30 µM; and `CCC(=O)N1CCc2cc(-c3ccc(C(=O)NCc4cnco4)cc3)ccc21` [Compound I-73, N-(oxazol-5-ylmethyl)-4-(1-propionylindolin-5-yl)benzamide], with above 30 µM; and `CCOc1ccc(CNC(=O)c2ccc(-c3ccc4c(c3)CCN4C(=O)CC)cc2)cc1` [Compound I-180], with above 30 µM.
For `CCC(=O)N1CCc2cc(-c3ccc(C(=O)NCc4ccnnc4)cc3)ccc21` [Compound I-52, 4-(1-propionylindolin-5-yl)-N-(pyridazin-4-ylmethyl)benzamide], the half-maximal inhibitory concentration (IC50) was above 10 µM.
The compound `CCC(=O)N1CCc2cc(-c3ccc(C(=O)NCc4cccnn4)cc3)ccc21` [Compound I-197, 4-(1-propionylindolin-5-yl)-N-(pyridazin-3-ylmethyl)benzamide] had an IC50 of 25.2 µM.
The compound `CCC(=O)N1CCc2cc(-c3ccc(C(=O)NCc4cnccc4C)cc3)ccc21` [Compound I-188, N-((4-methylpyridin-3-yl)methyl)-4-(1-propionylindolin-5-yl)benzamide] came in with an IC50 above 30 µM.
Compound `CCC(=O)N1CCc2cc(-c3cnc(C(=O)NCc4cccnc4)nc3)ccc21` [Compound I-65, 5-(1-propionylindolin-5-yl)-N-(pyridin-3-ylmethyl) pyrimidine-2-carboxamide] came in with an IC50 of 7.27 µM.
Consider `CCC(=O)N1CCc2cc(-c3ccc(C(=O)NCc4ccccc4)cc3)ccc21` [Compound I-152], for which the IC50 is above 30 µM.
`CCC(=O)N(C)c1ccc(-c2ccc(C(=O)NCc3cscn3)cc2)cc1` [Compound I-236] displayed a concentration for half-maximal inhibition (IC50) above 30 µM.
Compound `CCC(=O)N(C)c1ccc(-c2ccc(C(=O)NCc3cccnc3)cc2)c(C)c1` [Compound I-217] showed an IC50 of 1.85 µM.
The compound `CCC(=O)N(C)c1ccc(-c2ccc(S(=O)(=O)NCc3cccnc3)cc2)cc1` [Compound I-226] gave an IC50 of 9.76 µM.
In the case of `CC(=O)N(C)c1ccc(-c2ccc(C(=O)NCc3cccnc3)cc2)cc1C` [Compound I-216], inhibition was half-maximal at 2.44 µM (IC50).
For the compound `CCC(=O)N1CCc2cc(-c3ccc(C(=O)NCc4ccc(Cl)cc4)cc3)ccc21` [Compound I-176], half-maximal inhibition (IC50) required 25.8 µM.
Consider `CC(=O)N1CCc2cc(-c3ccc(C(=O)NCc4ccccn4)cc3)ccc21` [Compound I-175], for which the IC50 was 5.14 µM.
